Biological target: T1, human NK3 receptor (Homo sapiens, UniProt P29371)
T1 construct: expressed in transfected cells; host or cells: HEK293 cells (transient expression), membrane preparation
T1 sequence (P29371 1-465): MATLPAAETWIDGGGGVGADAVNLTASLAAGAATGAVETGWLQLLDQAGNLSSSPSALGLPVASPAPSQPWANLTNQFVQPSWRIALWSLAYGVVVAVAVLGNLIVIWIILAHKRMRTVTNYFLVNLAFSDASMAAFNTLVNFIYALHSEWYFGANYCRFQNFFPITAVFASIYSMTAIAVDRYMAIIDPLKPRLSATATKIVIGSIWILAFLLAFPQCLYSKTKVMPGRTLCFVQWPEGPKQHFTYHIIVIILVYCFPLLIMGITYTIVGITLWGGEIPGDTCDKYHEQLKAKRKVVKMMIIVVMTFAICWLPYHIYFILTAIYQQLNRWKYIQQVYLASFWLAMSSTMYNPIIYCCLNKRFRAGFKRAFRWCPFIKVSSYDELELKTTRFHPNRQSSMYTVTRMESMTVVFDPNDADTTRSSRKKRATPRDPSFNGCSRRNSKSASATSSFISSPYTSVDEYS
Test: [3H]SR142801 competition binding assay (hNK3 receptor binding)
Details: [3H]SR142801 radioligand; membranes from HEK293 cells transiently expressing recombinant human NK3 receptor; Ki by Cheng-Prussoff; read-out: KiNK3 h
How it was run: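 Competition binding with [3H]SR142801 on membranes of HEK293 cells transiently expressing human NK3, 5 μg protein/well, in Tris-HCl/MnCl2/phosphoramidon/BSA buffer pH 7.4. Nonspecific binding defined with 10 μM SB222200; filtration then scintillation counting. IC50 from Hill fit was converted to Ki by Cheng-Prusoff; duplicate, mean ± SEM.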

SMILES | Ki [nM]
C[C@H](Oc1ccc(C#N)cn1)[C@H]1CN(C(=O)c2ccc(-c3nnco3)cc2)C[C@@H]1c1ccc(Cl)c(Cl)c1 (racemic) [Example 63, 6-{(SR)-1[-(3RS,4SR)-4-(3,4-Dichloro-phenyl)-1-(4-[1,3,4]oxadiazol-2-yl-benzoyl)-pyrrolidin-3-yl]-ethoxy}-nicotinonitrile] | 2.1
Cc1cc(C(=O)N2C[C@H]([C@H](C)Oc3ccc(C#N)cn3)[C@@H](c3ccc(Cl)cc3)C2)cnn1 [Example 111, 6-{(S)-1-[(3R,4S)-4-(4-Chloro-phenyl)-1-(6-methyl-pyridazine-4-carbonyl)-pyrrolidin-3-yl]-ethoxy}-nicotinonitrile] | 3.7
CC(=O)Nc1ccc(C(=O)N2C[C@@H]([C@@H](C)Oc3ccc(Cl)cn3)[C@@H](c3ccc(Cl)c(Cl)c3)C2)cn1 (racemic) [Example 38] | 15.6
C[C@H](Oc1ccc(C#N)cn1)[C@H]1CN(C(=O)c2ccnnc2)C[C@@H]1c1ccc(Cl)c(Cl)c1 (racemic) [Example 77, 6-{(SR)-1-[(3RS,4SR)-4-(3,4-Dichloro-phenyl)-1-(pyridazine-4-carbonyl)-pyrrolidin-3-yl]-ethoxy}-nicotinonitrile] | 32.8
COc1ncc(C(=O)N2C[C@@H]([C@@H](C)Oc3ccc(Cl)cn3)[C@H](c3ccc(Cl)c(Cl)c3)C2)cn1 (racemic) [Example 12, [(3SR,4RS)-3-[(RS)-1-(5-Chloro-pyridin-2-yloxy)-ethyl]-4-(3,4-dichloro-phenyl)-pyrrolidin-1-yl]-(2-methoxy-pyrimidin-5-yl)-methanone] | 19.4
C[C@H](Oc1ccc(C#N)cn1)[C@H]1CN(C(=O)c2ccc(C#N)nc2)C[C@@H]1c1ccc(Cl)c(Cl)c1 (racemic) [Example 52, 6-{(SR)-1-[(3RS,4SR)-4-(3,4-Dichloro-phenyl)-1-(6-cyano-pyridine-3-carbonyl)-pyrrolidin-3-yl]-ethoxy}-nicotinonitrile] | 5.4
Cc1cc(C(=O)N2C[C@H]([C@H](C)Oc3ccc(Cl)cn3)[C@@H](c3ccc(F)cc3F)C2)cnn1 (racemic) [Example 117, [(3RS,4SR)-3-[(SR)-1-(5-Chloro-pyridin-2-yloxy)-ethyl]-4-(2,4-difluoro-phenyl)-pyrrolidin-1-yl]-(6-methyl-pyridazin-4-yl)-methanone] | 27
Cc1cc(C(=O)N2C[C@H]([C@H](C)Oc3ccc(C#N)cn3)[C@@H](c3ccc(F)c(F)c3)C2)c(C)nn1 [Example 114, 6-{(S)-1-[(3R,4S)-4-(3,4-Difluoro-phenyl)-1-(3,6-dimethyl-pyridazine-4-carbonyl)-pyrrolidin-3-yl]-ethoxy}-nicotinonitrile] | 85.4
Cc1cc(C(=O)N2C[C@@H]([C@@H](C)Oc3ccc(Cl)cn3)[C@H](c3ccc(Cl)c(Cl)c3)C2)c(C)n1C1CC1 (racemic) [Example 31, [(3SR,4RS)-3-[(RS)-1-(5-Chloro-pyridin-2-yloxy)-ethyl]-4-(3,4-dichloro-phenyl)-pyrrolidin-1-yl]-(1-cyclopropyl-2,5-dimethyl-1H-pyrrol-3-yl)-methanone] | 5
COc1ccc(C(=O)N2C[C@@H]([C@@H](C)Oc3ccc(C(F)(F)F)cc3)[C@H](c3ccc(Cl)c(Cl)c3)C2)cn1 (racemic) [Example 9, {(3RS,4SR)-3-(3,4-Dichloro-phenyl)-4-[(RS)-1-(4-trifluoromethyl-phenoxy)-ethyl]-pyrrolidin-1-yl}-(6-methoxy-pyridin-3-yl)-methanone] | 79.8
C[C@H](Oc1ccc(C#N)cn1)[C@H]1CN(C(=O)c2ccc(-c3cnco3)cc2)C[C@@H]1c1ccc(Cl)c(Cl)c1 (racemic) [Example 59, 6-{(SR)-1-[(3RS,4SR)-4-(3,4-Dichloro-phenyl)-1-(4-oxazol-5-yl-benzoyl)-pyrrolidin-3-yl]-ethoxy}-nicotinonitrile] | 2.1
COc1ncc(C(=O)N2C[C@H]([C@H](C)Oc3ccc(C#N)cn3)[C@@H](c3ccc(Cl)c(Cl)c3)C2)cn1 (racemic) [Example 70, 6-{(SR)-1-[(3RS,4SR)-4-(3,4-Dichloro-phenyl)-1-(2-methoxy-pyrimidine-5-carbonyl)-pyrrolidin-3-yl]-ethoxy}-nicotinonitrile] | 34.9

Other lines, results leading:

Ki [nM] | SMILES
4.3 | C[C@H](Oc1ccc(C(F)(F)F)cn1)[C@H]1CN(C(=O)c2ccc(C#N)nc2)C[C@@H]1c1ccc(Cl)c(Cl)c1 (racemic) [Example 56, 5-{(3SR,4RS)-3-(3,4-Dichloro-phenyl)-4-[(SR)-1-(5-trifluoromethyl-pyridin-2-yloxy)-ethyl]-pyrrolidine-1-carbonyl}-pyridine-2-carbonitrile]
27.2 | Cc1ncc(C(=O)N2C[C@H]([C@H](C)Oc3ccc(C(F)(F)F)cn3)[C@@H](c3ccc(Cl)c(Cl)c3)C2)cn1 (racemic) [Example 79, {(3SR,4RS)-3-(3,4-Dichloro-phenyl)-4-[(SR)-1-(5-trifluoromethyl-pyridin-2-yloxy)-ethyl]-pyrrolidin-1-yl}-(2-methyl-pyrimidin-5-yl)-methanone]
4 | Cc1cc(C(=O)N2C[C@H]([C@H](C)Oc3ccc(Cl)cn3)[C@@H](c3ccc(F)c(F)c3)C2)cnn1 [Example 104, [(3R,4S)-3-[(S)-1-(5-Chloro-pyridin-2-yloxy)-ethyl]-4-(3,4-difluoro-phenyl)-pyrrolidin-1-yl]-(6-methyl-pyridazin-4-yl)-methanone]
45.7 | C[C@H](Oc1ccc(C#N)cn1)[C@H]1CN(C(=O)c2cnc(C(C)(C)C)nc2)C[C@@H]1c1ccc(Cl)c(Cl)c1 (racemic) [Example 98, 6-{(SR)-1-[(3RS,4SR)-1-(2-tert-Butyl-pyrimidine-5-carbonyl)-4-(3,4-dichloro-phenyl)-pyrrolidin-3-yl]-ethoxy}-nicotinonitrile]
18.6 | C[C@H](Oc1ccc(C#N)cn1)[C@H]1CN(C(=O)c2cncc(F)c2)C[C@@H]1c1ccc(Cl)c(Cl)c1 (racemic) [Example 74, 6-{(SR)-1-[(3RS,4SR)-4-(3,4-Dichloro-phenyl)-1-(5-fluoro-pyridine-3-carbonyl)-pyrrolidin-3-yl]-ethoxy}-nicotinonitrile]
0.6 | Cc1noc(-c2ccc(C(=O)N3C[C@H]([C@H](C)Oc4ccc(C(F)(F)F)cn4)[C@@H](c4ccc(Cl)c(Cl)c4)C3)cc2)n1 (racemic) [Example 83, {(3SR,4RS)-3-(3,4-Dichloro-phenyl)-4-[(SR)-1-(5-trifluoromethyl-pyridin-2-yloxy)-ethyl]-pyrrolidin-1-yl}-[4-(3-methyl-[1,2,4]oxadiazol-5-yl)-phenyl]-methanone]
1.5 | C[C@H](Oc1ccc(C(F)(F)F)cn1)[C@H]1CN(C(=O)c2ccc(-n3cccn3)nc2)C[C@@H]1c1ccc(Cl)c(Cl)c1 (racemic) [Example 80, {(3SR,4RS)-3-(3,4-Dichloro-phenyl)-4-[(SR)-1-(5-trifluoromethyl-pyridin-2-yloxy)-ethyl]-pyrrolidin-1-yl}-(6-pyrazol-1-yl-pyridin-3-yl)-methanone]
7.3 | CSc1ccc(C(=O)N2C[C@@H]([C@@H](C)Oc3ccc(Cl)cn3)[C@H](c3ccc(Cl)c(Cl)c3)C2)cn1 (racemic) [Example 45, [(3SR,4RS)-3-[(RS)-1-(5-Chloro-pyridin-2-yloxy)-ethyl]-4-(3,4-dichloro-phenyl)-pyrrolidin-1-yl]-(6-methylsulfanyl-pyridin-3-yl)-methanone]
